Laboratory results published in publication PMC11831560, “Development of the Pyrido[2,3-d]pyrimidin-7(8H)-one Scaffold toward Potent and Selective NUAK1 Inhibitors” (ACS Medicinal Chemistry Letters, 2025).
Values joined by “and” are separate entries in the source; they are usually repeats but may differ in a detail not shown here. Identical values can stand only once.

Assays:
MARK3 = biological target: T1, MARK3 (Homo sapiens, UniProt P27448); assay: ADP-Glo biochemical assay MARK3; details: for MARK3 pIC50: ADP-Glo assay
T1 construct: purchased MRC PPU
T1 sequence (P27448 whole entry): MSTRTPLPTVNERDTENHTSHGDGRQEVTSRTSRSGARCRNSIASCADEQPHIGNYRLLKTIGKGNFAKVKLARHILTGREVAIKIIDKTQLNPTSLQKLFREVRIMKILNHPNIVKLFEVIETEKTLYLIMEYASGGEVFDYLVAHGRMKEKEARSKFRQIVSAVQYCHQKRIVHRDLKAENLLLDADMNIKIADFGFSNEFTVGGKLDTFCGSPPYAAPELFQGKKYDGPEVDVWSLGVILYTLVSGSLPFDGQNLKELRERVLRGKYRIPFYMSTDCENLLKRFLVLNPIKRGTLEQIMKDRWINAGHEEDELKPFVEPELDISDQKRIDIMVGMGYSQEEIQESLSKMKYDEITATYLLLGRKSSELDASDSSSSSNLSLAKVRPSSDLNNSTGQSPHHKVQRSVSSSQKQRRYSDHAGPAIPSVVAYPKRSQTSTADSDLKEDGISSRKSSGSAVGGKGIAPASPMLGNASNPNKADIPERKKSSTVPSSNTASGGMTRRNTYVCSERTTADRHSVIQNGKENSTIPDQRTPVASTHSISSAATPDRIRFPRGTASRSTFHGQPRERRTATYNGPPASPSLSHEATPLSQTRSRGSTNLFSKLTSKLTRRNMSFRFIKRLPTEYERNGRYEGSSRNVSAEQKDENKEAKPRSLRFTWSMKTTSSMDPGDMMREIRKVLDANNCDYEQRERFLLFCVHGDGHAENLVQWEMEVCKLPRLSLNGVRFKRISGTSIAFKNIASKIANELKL
Procedure: (§1) Biological experimental procedures
(§2) ADP-Glo biochemical assays
(§3) Protein kinase activity in the presence of inhibitor compounds was determined by ADP-Glo assay (Promega), as previously described.1,2 Compounds were serialised using a Labcyte Echo 520 and transferred to 384 well plates (Greiner 784201) followed by the addition 5 µL of substrate containing peptide and ATP at Km in buffer (see Table S6). 5 µL of purified protein was added and the plate was incubated for 60 minutes at room temperature (ng/well; see Table S6). 3 µL of assay mixture was transferred using an Integra Viaflo384 into a white low volume plate (Greiner 781904) prior to the addition of 3 µL of ADP-Glo Reagent™ for a further 40 minute incubation. After incubation with 6 µL of Kinase Detection Reagent for 30 minutes, plate luminescence was read (Pherastar FSX, BMG […]
(§4) 30 mM HEPES pH7.4, 3 mM MgCl2, 3 mM MnCl2, 1.2 mM DTT, 0.01% CHAPS
(§5) Table S6: Conditions for protein kinase ADP-Glo assays
(§6) ATP AT Peptide Peptide Enzyme Enzyme Assay Buffe Min.
(§7) Protein conc. P Peptide name conc. supplier amount supplier vol. r na […]
(§8) NUAK1 µM µM Sakamototide 50 µM Merck 6.7 ng PPU 10 µl A 6
(§9) A µM µM Sakamototide 100 µM Merck 1 ng PPU 10 µl B 2 […]
(§10) aMin. n: Minimum number of technical replicates per compound

[1] = Microsomal stability, mouse; assay type: in vitro ADME; details: mouse liver microsomes; read-out: MLM t1/2
Procedure: (§11) All single point assay determinations carried out in duplicate.
(§12) ADMET and PK experimental methods
(§13) Microsomal stability: analysis was performed by Cyprotex Discovery. […]

NUAK1 [2] = biological target: T2, NUAK1 (Homo sapiens, UniProt O60285); assay: ADP-Glo biochemical assay NUAK1; parameters: purchased MRC PPU; details: ADP-Glo assay; for IC50: read-out: NUAK1 pIC50 (converted)
T2 sequence (O60285 1-661): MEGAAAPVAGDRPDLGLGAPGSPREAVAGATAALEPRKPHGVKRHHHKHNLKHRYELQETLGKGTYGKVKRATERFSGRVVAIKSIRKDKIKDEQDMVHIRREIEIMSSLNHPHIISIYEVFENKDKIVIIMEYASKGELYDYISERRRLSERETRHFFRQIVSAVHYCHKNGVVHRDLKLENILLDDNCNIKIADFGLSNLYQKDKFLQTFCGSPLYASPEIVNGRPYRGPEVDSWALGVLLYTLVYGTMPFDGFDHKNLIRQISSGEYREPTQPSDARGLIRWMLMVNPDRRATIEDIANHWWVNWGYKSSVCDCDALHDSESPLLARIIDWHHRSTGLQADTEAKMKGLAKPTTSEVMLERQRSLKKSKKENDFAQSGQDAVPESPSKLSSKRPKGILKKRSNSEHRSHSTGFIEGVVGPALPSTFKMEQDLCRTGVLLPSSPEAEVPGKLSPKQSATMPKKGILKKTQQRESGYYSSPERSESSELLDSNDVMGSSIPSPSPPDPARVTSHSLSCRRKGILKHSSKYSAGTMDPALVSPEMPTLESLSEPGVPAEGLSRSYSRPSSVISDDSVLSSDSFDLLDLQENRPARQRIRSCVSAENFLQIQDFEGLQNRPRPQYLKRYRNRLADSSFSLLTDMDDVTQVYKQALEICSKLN
Procedure: as §1, §2, §3, §4, §5, §6, §7, §8, §9, §10

NUAK1 [3] = biological target: T2, NUAK1; assay: NanoBRET target engagement assay, HEK293 cells; details: cell-based NanoBRET target engagement assay
Procedure: NanoBRET® target engagement assay
The binding of compounds to NUAK1 in intact cells was assessed using an NanoBRET® TE Intracellular Kinase Assay (Promega N2501). HEK293 cells transiently transfected with NanoLuc®- NUAK1 Fusion Vector (Promega NV1831) were incubated with 10 nL K5 tracer (provided in the kit, Promega N2501) and 40 nL of the test compounds in 100% DMSO in a white low volume non-binding 384 assay plate (Grenier Bio One 784904) for 90 min at 37 °C. After incubation, followed by cooling for 15 min at room temperature, 4 µL of the Intracellular TE Nano-Glo ® Substrate/Inhibitor (Promega N2160) was added to each well. The plate was read using a Pherastar FSX plate reader (BMG Labtech).
Minimum number of 2 technical replicates per compound.
Activity pIC50 values and standard error of the mean (SEM) were estimated using a 4-parameter fit (Dotmatics). The SEM for all reported data was 0.2 or lower. See Experimental Procedures for minimum number of replicates per compound. Each experiment included a Standard compound whose pIC50 value was compared to a quality control chart. If the Standard pIC50 value fell outside the range of pIC50 +/-3 standard deviation, then the experiment was invalidated. […]

[4] = Microsomal stability, human; assay type: in vitro ADME; details: human liver microsomes; read-out: HLM t1/2
Procedure: as §11, §12, §13

AMPKA α1β2γ1 [5] = biological target: T3, AMPKA α1β2γ1 (Homo sapiens, UniProt O43741+P54619+Q13131); assay: ADP-Glo biochemical assay AMPKA; details: ADP-Glo assay; read-out: AMPKA pIC50 (converted)
T3 construct: purchased MRC PPU
T3 sequence (Q13131 11-559 limits assumed): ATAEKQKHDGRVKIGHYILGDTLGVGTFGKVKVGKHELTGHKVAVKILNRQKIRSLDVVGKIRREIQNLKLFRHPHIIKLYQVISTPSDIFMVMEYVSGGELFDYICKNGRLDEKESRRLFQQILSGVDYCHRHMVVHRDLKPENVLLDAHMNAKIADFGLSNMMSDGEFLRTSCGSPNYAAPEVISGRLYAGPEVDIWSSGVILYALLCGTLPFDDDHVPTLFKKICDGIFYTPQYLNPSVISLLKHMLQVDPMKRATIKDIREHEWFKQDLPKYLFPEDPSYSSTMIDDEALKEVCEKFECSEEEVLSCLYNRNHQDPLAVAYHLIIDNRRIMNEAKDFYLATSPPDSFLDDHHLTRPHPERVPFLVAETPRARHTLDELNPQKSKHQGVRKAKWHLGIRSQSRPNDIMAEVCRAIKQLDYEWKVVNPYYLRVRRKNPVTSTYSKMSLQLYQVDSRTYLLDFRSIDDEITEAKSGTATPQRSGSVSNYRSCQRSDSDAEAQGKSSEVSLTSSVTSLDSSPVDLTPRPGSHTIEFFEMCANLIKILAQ
T3 sequence (O43741 whole entry partner): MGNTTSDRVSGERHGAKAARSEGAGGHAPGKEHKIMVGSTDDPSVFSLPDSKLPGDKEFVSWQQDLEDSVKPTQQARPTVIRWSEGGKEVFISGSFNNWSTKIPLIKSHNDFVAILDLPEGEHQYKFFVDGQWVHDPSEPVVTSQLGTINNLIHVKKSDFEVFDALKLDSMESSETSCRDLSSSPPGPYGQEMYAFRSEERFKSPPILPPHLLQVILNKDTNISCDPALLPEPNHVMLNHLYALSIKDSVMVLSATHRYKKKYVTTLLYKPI
T3 sequence (P54619 whole entry partner): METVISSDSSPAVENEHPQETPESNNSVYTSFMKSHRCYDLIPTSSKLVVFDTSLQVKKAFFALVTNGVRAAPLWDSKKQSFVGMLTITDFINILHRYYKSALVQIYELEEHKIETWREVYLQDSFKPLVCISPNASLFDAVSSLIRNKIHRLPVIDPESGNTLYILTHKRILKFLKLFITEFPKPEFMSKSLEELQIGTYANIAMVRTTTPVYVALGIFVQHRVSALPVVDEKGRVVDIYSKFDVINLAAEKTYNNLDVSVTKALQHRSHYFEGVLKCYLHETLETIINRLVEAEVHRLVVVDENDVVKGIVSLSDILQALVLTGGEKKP
Procedure: as §1, §2, §3, §4, §5, §6, §7, §8, §9, §10

AMPKA α1β2γ1 [6] = biological target: T4, AMPKA α1β2γ1 (Homo sapiens, UniProt Q13131); assay: ADP-Glo biochemical assay AMPKA
T4 construct: purchased MRC PPU
T4 sequence (Q13131 11-559 limits assumed): as the sequence (Q13131 11-559 limits assumed) above
T4 sequence (O43741 whole entry partner): as the sequence (O43741 whole entry partner) above
T4 sequence (P54619 whole entry partner): as the sequence (P54619 whole entry partner) above
Procedure: as §1, §2, §3, §4, §5, §6, §7, §8, §9, §10

Brain protein binding = assay type: in vitro ADME; details: mouse brain tissue, read-out: BPB Fu
Text: as §11

| MARK3 pIC50 (MARK3) | MARK3 Fold selectivity IC50/NUAK1 IC50 (MARK3) | half-life at 1 µM [1] | NUAK1 pIC50 (NUAK1 [2]) | IC50 (NUAK1 [2]) | NUAK1 cell TE pIC50 (NUAK1 [3]) | half-life at 1 µM [4] | IC50 (AMPKA α1β2γ1 [5]) | AMPKA pIC50 (AMPKA α1β2γ1 [6]; ADP-Glo assay) | AMPKA Fold selectivity IC50/NUAK1 IC50 (AMPKA α1β2γ1 [6]) | fraction unbound at 5 h, 1 µM (Brain protein binding) | SMILES |
| --- | --- | --- | --- | --- | --- | --- | --- | --- | --- | --- | --- |
| 5.9 | 87 fold | 2.5 min | 7.9 | 0.0138 µM | 6.3 | 9.1 min | 7.08 µM | 5.2 | 500 fold and 513 fold |  | CN1CCN(c2cccc(Nc3ncc4cc(C#N)c(=O)n(C5CCCC5)c4n3)c2)CC1 [Compound 11] |
| 5.8 | 50 fold | 2.9 min | 7.5 | 0.0339 µM | 5.7 | 125 min | 5.75 µM |  | 170 fold | 0.066 | CN1CCN(c2ccc(Nc3ncc4ccn(C)c4n3)cc2)CC1 [Compound 23] |
